Source: US4579947A, “Substituted phenylalkylpiperazinylpropyl (ureas or thioureas) useful for treatment of immunological, inflammatory and allergic disorder” (Boehringer Ingelheim Pharmaceuticals, Inc., priority 1984, dated 1986)

Legend:
[1] = test system: isolated guinea pig ileum; assay: Antagonism of histamine-induced contraction of isolated guinea pig ileum; type: cell-based; conditions: Cavia porcellus; Table C; histamine final concentration 0.2 μg/ml; read-out: Inhibition IC50 (histamine-induced contraction of isolated guinea pig ileum)
Protocol: The antagonism of the effects of histamine on the contraction of isolated guinea pig ileum by the compounds of formula I can be determined by the procedure of G. Possanza, A. Bauen, and P. Stewart, Int. Arch. Allergy Appl. Immunol., 49, 289 (1975). The degree of inhibition is determined as the difference between the contraction caused by histamine (final concentration 0.2 μg/ml) alone and that seen in the presence of both histamine and the test compound. The inhibitory activity of the test compound is expressed as that concentration of the compound which causes a 50% reduction of the contractile response (IC50).

CNS = assay: Standard mouse neuropharmacological profile; type: in vivo
From the text: With the exception of the compounds wherein R4 is a lower alkyl group from 7 to 12 carbon atoms, the compounds of formula I inhibit in vitro the histamine-induced contraction of isolated guinea pig ileum and are useful in warm-blooded animals for antagonizing the action of histamine at the histamine (H1) receptor. Accordingly, the compounds of formula I can be employed as antihistamine agents for the treatment of allergic disorders, for example allergic rhinitis, vasomotor rhinitis, allergic conjunctivitis, hay fever, urticaria, and food allergies. Certain compounds of formula I lack the CNS side effects, such as sedation, normally associated with antihistamine therapy.

[2] = test system: human leukocytes (basophils); assay: Inhibition of human leukocyte (basophil) histamine release in vitro (rabbit anti-human IgE); type: cell-based; conditions: Leukocyte, 1 h, Table A, 60 minutes at 37° C., Int. = interference with test procedure, read-out: Inhibition IC50 (histamine release from human leukocytes (basophils))
Protocol: Separation of Leukocytes: A modification of the method of L. Lichtenstein and A. Osler, J.Exp.Med. 120, 507 (1964) was used. Heparinized human blood (80-100 ml) is mixed with 20 ml of saline (0.2%) containing 0.6 gm of dextrose and 1.2 gm dextran in propylene centrifuge tubes. The mixture is kept at ambient temperature for 60-90 minutes to allow the separation of erythrocytes from the platelet-leukocyte-rich supernate. The supernate is removed and centrifuged for 8 minutes at 110×g in cold. The leukocyte pellet is washed 2× with Tris buffer and finally suspended in 150-180 ml Tris-ACM buffer at 1-2×10^6 cells/ml. 2. Reaction Mixture: The reaction is carried out in 12×75 mm plastic tubes at a total volume of 1.25 ml. The reaction medium includes 0.05 ml rabbit anti-human IgE (the antigen), 0.2 ml of the test compound in water at concentrations ranging from 10-1000 μM, and 1.0 ml of the leukocyte suspension. The reaction mixture is incubated in a 37° C. shaking water bath for 60 minutes. Upon completion of the reaction, the tubes are centrifuged and the supernatants collected. The protein is removed from the supernatants by precipitation with 0.2 ml of 8% perchloric acid. 3. Histamine Assay: Histamine release is measured by the automated fluorometric method of W. Siraganian and W. Hook in Chapter 102 of the Manual of Clinical Immunology, 2nd Edition, Edited by R. Rose and H. Friedman, Published by the American Society for Microbiology, Washington, D.C. 1980. Percent inhibition is calculated as follows: [formula] The concentration which causes a 50 percent inhibition (IC50) of histamine release is interpolated from a plot of percent inhibition versus logarithm of drug concentration.

[3] = test system: rat peritoneal mast cells; assay: Inhibition of rat peritoneal mast cell histamine release; type: cell-based; conditions: Table B; in vitro, sheep anti-rat IgE or ovalbumin, 60 minutes at 37° C.; Int. = interference with test procedure
Protocol: Harvest of Peritoneal Mast Cells: After the rats are sacrificed with ether, 20 ml of Minimum Essential Medium (MEM) containing 20 units/ml heparin is injected into the peritoneum. The abdomen is massaged for one minute and the lavage fluid collected. The peritoneal cells are centrifuged at 1800 rpm for 8 minutes in cold. After two washes with Tris A buffer, the cells are resuspended in Tris ACM buffer at 2-33 10^6 cells/ml. 2. Reaction Mixture: The reaction is carried out in 12×75 mm plastic tubes at a total volume of 1.25 ml. The reaction mixture includes 0.5 ml (10-1000 μg) sheep anti-rat IgE or ovalbumin, 0.2 ml of the test compound in water at concentrations ranging from 10-1000 μM, 0.5 ml phosphatidylserine solution (20-60 μg to each tube), and 0.5 ml of cell suspension. The reaction mixture is incubated in a 37° C. shaking water bath for 60 minutes. Upon completion of the reaction, the tubes are centrifuged and the supernatants collected. The protein is removed from the supernatants by precipitation with 0.2 ml of 8% perchloric acid. 3. Histamine Assay: Histamine release is measured by the automated fluorometric method of Siraganian, supra. The concentration which causes a 50% inhibition (IC50) of histamine release is computed as in Part A.

Row | Compound | IC50 [1] [µM] | CNS effects (CNS) | IC50 [2] [µM] | Inhibition IC50 (histamine release from rat peritoneal mast cells) [3]
1 | CCOC(=O)c1ccc(NC(=O)NCCCN2CCN(Cc3ccc(Cl)cc3)CC2)cc1.Cl [Example 13, 1-{3-[4-(4-Chlorobenzyl)piperazin-1-yl]propyl}-3-(4-ethoxycarbonylphenyl)urea hydrochloride] | 0.11 | not to exert significant CNS effects | 190 | –
2 | Cl.O=C(NCCCN1CCN(Cc2ccc(Cl)cc2)CC1)Nc1ccc(C(=O)O)cc1 [Example 14, 1-{3-[4-(4-Chlorobenzyl)piperazin-1-yl]propyl}-3-(4-carboxyphenyl)urea hydrochloride] | 0.21 | not to exert significant CNS effects | > 1000 | –
3 | CCCCCCNC(=O)NCCCN1CCN(CCCc2ccc(Cl)cc2)CC1.Cl.Cl [Example 25, 1-{3-[4-[3-(4-Chlorophenyl)propyl]piperazin-1-yl]propyl}-3-n-hexylurea dihydrochloride] | 0.13 | – | 10 | Int.
